Laboratory results: ChEMBL document CHEMBL5226373, “Dichapetalins from the Twigs of Dichapetalum longipetalum with Cytotoxic Activities” (J Nat Prod, 2023)
Counter-ions that a name gives are not always drawn.

Key:
Assay type in all cases: functional, cell-based
HL-60 = assay: Cytotoxicity against human HL-60 cells assessed as inhibition of cell growth by CCK-8 assay
A549 = assay: Cytotoxicity against human A549 cells assessed as inhibition of cell growth by CCK-8 assay
MIA PaCa-2 = assay: Cytotoxicity against human MIA PaCa-2 cells assessed as inhibition of cell growth by CCK-8 assay
SU.86.86 = assay: Cytotoxicity against human SU-86-86 cells assessed as inhibition of cell growth by CCK-8 assay
YAPC = assay: Cytotoxicity against human YAPC cells assessed as inhibition of cell growth by CCK-8 assay

| Structure (SMILES) | IC50 (HL-60) [nM] | IC50 (A549) [nM] | IC50 (MIA PaCa-2) [nM] | IC50 (SU.86.86) [nM] | IC50 (YAPC) [nM] |
| --- | --- | --- | --- | --- | --- |
| CC(=O)O[C@@]1(C)CO[C@@]2(C1)OC(=O)[C@H]([C@@H]1CC[C@]34C[C@]13C=C[C@@H]1[C@@]3(C)CC=C5C[C@@H](c6ccccc6)OC[C@]5(C)[C@@H]3C[C@H](O)[C@]14C)[C@H]2O | > 10000 | 3300 | – | – | – |
| C/C(=C\[C@@H]1OC(=O)[C@H]([C@@H]2CC[C@]34C[C@]23C=C[C@@H]2[C@@]3(C)CC(=O)/C(=C\C(=O)c5ccccc5)C(C)(C)[C@@H]3C[C@H](O)[C@]24C)[C@H]1O)CO | > 10000 | > 10000 | – | – | – |
| C/C(=C\[C@H]1C[C@@](O)([C@@H]2CC[C@]34C[C@]23C=C[C@@H]2[C@@]3(C)CC(=O)/C(=C\C(=O)c5ccccc5)C(C)(C)[C@@H]3C[C@@H](O)[C@]24C)C(=O)O1)CO | > 10000 | 9400 | – | – | – |
| C/C(=C\[C@H]1C[C@@](O)([C@@H]2CC[C@]34C[C@]23C=C[C@@H]2[C@@]3(C)CC=C(/C=C\c5ccccc5)C(C)(C)[C@@H]3CC(=O)[C@]24C)C(=O)O1)CO | 1300 | 3700 | 2800 | – | – |
| C/C(=C\[C@@H]1OC(=O)[C@H]([C@@H]2CC[C@]34C[C@]23C=C[C@@H]2[C@@]3(C)CC=C(/C=C\c5ccccc5)C(C)(C)[C@@H]3C[C@@H](O)[C@]24C)[C@H]1O)CO | 3300 | 9200 | > 10000 | – | – |
| COc1ccc(/C=C/C2=CC[C@]3(C)[C@H]4C=C[C@]56C[C@]5(CC[C@H]6[C@H]5C(=O)O[C@@H](/C=C(\C)CO)[C@@H]5O)[C@]4(C)[C@H](O)C[C@H]3C2(C)C)cc1 | 360 | 1200 | 390 | 1700 | > 10000 |
| C/C(=C\[C@H]1C[C@@](O)([C@@H]2CC[C@]34C[C@]23C=C[C@@H]2[C@@]3(C)CC=C5C[C@@H](c6ccccc6)OC[C@]5(C)[C@@H]3C[C@@H](O)[C@]24C)C(=O)O1)CO | > 10000 | 1100 | – | – | – |
| C/C(=C\[C@@H]1OC(=O)[C@](O)([C@@H]2CC[C@]34C[C@]23C=C[C@@H]2[C@@]3(C)CC=C(/C=C/c5ccccc5)C(C)(C)[C@@H]3C[C@@H](O)[C@]24C)[C@H]1O)CO | 1000 | 3800 | 960 | – | – |
| C/C(=C\[C@@H]1OC(=O)[C@H]([C@@H]2CC[C@]34C[C@]23C=C[C@@H]2[C@@]3(C)CC=C(/C=C/c5ccccc5)C(C)(C)[C@@H]3C[C@H](O)[C@]24C)[C@H]1O)CO | 280 | 1800 | 930 | – | – |
| COc1ccc(C(=O)[C@@H]2O[C@]23C(=O)C[C@]2(C)[C@H]4C=C[C@]56C[C@]5(CC[C@H]6[C@H]5C(=O)O[C@@H](/C=C(\C)CO)[C@@H]5O)[C@]4(C)[C@H](O)C[C@H]2C3(C)C)cc1 | > 10000 | > 10000 | – | – | – |
| C/C(=C\[C@H]1C[C@@H]([C@@H]2CC[C@]34C[C@]23C=C[C@@H]2[C@@]3(C)CC=C(/C=C/c5ccccc5)C(C)(C)[C@@H]3C[C@@H](O)[C@]24C)C(=O)O1)CO | 350 | 2800 | 670 | 1600 | 6700 |
| COc1ccc([C@@H]2C=C3[C@H](C[C@]4(C)[C@H]5C=C[C@]67C[C@]6(CC[C@H]7[C@H]6CO[C@@H](/C=C(\C)CO)[C@@H]6O)[C@]5(C)[C@H](O)C[C@H]4C3(C)C)OO2)cc1 | > 10000 | > 10000 | – | – | – |
| COc1ccc([C@H]2C=C3[C@@H](C[C@]4(C)[C@H]5C=C[C@]67C[C@]6(CC[C@H]7[C@H]6CO[C@@H](/C=C(\C)CO)[C@@H]6O)[C@]5(C)[C@H](O)C[C@H]4C3(C)C)OO2)cc1 | > 10000 | > 10000 | – | – | – |
| COc1cccc2c1C(=O)c1c(O)c3c(c(O)c1C2=O)C[C@@](O)(C(=O)CO)C[C@@H]3O[C@H]1C[C@H](N)[C@H](O)[C@H](C)O1 [DOXORUBICIN HYDROCHLORIDE] | – | – | 250 | 330 | 310 |
| C/C(=C\[C@H]1C[C@@](O)([C@@H]2CC[C@]34C[C@]23CC[C@@H]2[C@@]3(C)Cc5oc(-c6ccccc6)cc5C(C)(C)[C@@H]3C[C@H](O)[C@]24C)C(=O)O1)CO | > 10000 | > 10000 | – | – | – |
| C/C(=C\[C@@H]1C[C@@](O)([C@@H]2CC[C@]34C[C@]23C=C[C@@H]2[C@@]3(C)CC=C(/C=C/c5ccccc5)C(C)(C)[C@@H]3CC(=O)[C@]24C)C(=O)O1)CO | 1700 | 2200 | 770 | – | – |
